Measurements from patent US20240156764A1, “INHIBITION OF URACIL DNA GLYCOSYLASE IN THE OPEN CONFORMATION” (CASE WESTERN RESERVE UNIVERSITY, priority 2022, published 2024).

Target: human UDG (Homo sapiens, UniProt P13051)
Experiment: Microscale thermophoresis (MST) binding
Parameters: Bacterially expressed and purified full-length human UDG; made in house
Experimental: The data for thermophoresis was recorded at 20° C. using the blue LED at 20% and IR-Laser at 40%. The isotherm derived from the raw data and fitted according to the law of mass action. […] Then 2 μL of 10× Sypro dye and 2 μL of ddH20 (Applied biosystems cat #4461141) were added. Monitoring of fluorescence took place for 2 hr (Bioraid CFX96, Hex filter, 25-97° C., 1.6° C./2 min). Negative (−) derivative RFU raw data and plots from the machine were obtained and analyzed. […] Melting temperature (Tm) value was taken directly from the midpoint on the −dRFU/dt vs. temperature graph. Each point on the graph represents an average of three data sets. Y error bars represent the standard deviation.
Bacterially expressed and purified full-length human UDG was fluorescently labeled with Atto488 NHS ester according to the manufacturer's protocol. […] The samples were loaded into silica premium capillaries (Polymicro Technologies) after incubation at room temperature for 15 min measurements were performed at 20° C., by using 20% LED power and 40% IR-laser power. Measurements were also carried out on 40 and 60% IR-Laser power for comparison. The raw data were exported to GraphPad Prism8 software, KD value was obtained by data fitting with a one-site specific binding model.

Chain of human UDG (P13051 whole entry): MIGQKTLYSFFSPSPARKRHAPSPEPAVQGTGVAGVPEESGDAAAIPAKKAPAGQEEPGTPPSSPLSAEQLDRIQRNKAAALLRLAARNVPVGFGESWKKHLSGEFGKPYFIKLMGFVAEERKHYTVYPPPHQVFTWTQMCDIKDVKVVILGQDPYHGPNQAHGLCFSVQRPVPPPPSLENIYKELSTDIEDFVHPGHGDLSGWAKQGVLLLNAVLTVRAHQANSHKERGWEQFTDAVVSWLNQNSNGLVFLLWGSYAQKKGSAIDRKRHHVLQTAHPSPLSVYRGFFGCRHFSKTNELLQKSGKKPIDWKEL

`N.N.N.O=C(O)C1=CC(=C(c2ccc(O)c(C(=O)O)c2)c2ccc(O)c(C(=O)O)c2)C=CC1=O` [ATA NH4 salt] was tested, and the Kd (MST, 100 nM labelled UDG, estimated, read-out: binding dissociation constant (KD)) was < 700 nM and the “direct binding to the purified human UDG protein” value (more soluble ATA NH4 salt form) was “significant improvement in direct binding”.
